According to patent US10669258B2, “3-sulfonyl-5-aminopyridine-2,4-diol APJ agonists” (BRISTOL-MYERS SQUIBB COMPANY, priority 2016, dated 2020):
pEC50: −log10 of the molar value. Like-named read-outs stand apart in the source and are kept apart here.

Target: T1, human APJ receptor (Homo sapiens, UniProt P35414)
T1 construct: expressed in transfected cells; host or cells: HEK293
T1 sequence (P35414 1-380): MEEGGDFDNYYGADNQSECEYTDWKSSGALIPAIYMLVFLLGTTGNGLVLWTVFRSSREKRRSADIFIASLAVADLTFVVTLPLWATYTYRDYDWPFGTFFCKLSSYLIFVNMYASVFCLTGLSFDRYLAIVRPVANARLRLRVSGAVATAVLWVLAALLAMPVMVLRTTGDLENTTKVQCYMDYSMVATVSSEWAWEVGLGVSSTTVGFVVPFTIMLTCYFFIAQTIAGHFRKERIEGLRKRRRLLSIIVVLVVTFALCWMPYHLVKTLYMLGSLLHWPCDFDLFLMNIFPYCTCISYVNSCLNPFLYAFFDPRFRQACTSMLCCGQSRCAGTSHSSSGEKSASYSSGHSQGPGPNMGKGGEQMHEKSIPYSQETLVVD
Assay: Intracellular cAMP accumulation assay (APJ hcAMP, HTRF)
Type: cell-based
Protocol: Intracellular cAMP Accumulation Assay
HEK293 cells stably expressing human APJ receptor were used to assess the activity of compounds. Cultured cells were detached and resuspended in the cAMP Homogeneous Time-Resolved Fluorescence (HTRF) assay buffer (Cisbio cat; #62AM4PEJ). The assay was performed in 384-well assay plates (Perkin-Elmer; cat #6008289) according to assay protocol provided by the manufacturer. Serial dilutions of a compound together with assay buffer containing […] IBMX and 2 μM forskolin were added to each well containing 5,000 cells and incubated for 30 minutes at room temperature. Subsequently, cAMP D2 reagent was added in the lysis buffer followed by the EuK antibody (Cisbio; cat #62AM4PEJ) and incubated for 60 min. The fluorescence emission ratio was measured using fluorometer. The intracellular cAMP concentrations (compound-stimulated inhibition of forskolin-mediated cAMP production) were calculated by extrapolation from a standard curve using known cAMP concentrations. The EC50 values were obtained by fitting the data to a sigmoidal concentration-response curve with variable slope. The maximal achievable inhibition of forskolin-induced cAMP levels (Ymax) for each compound was expressed as relative percentage of inhibition attained using pyroglutamated apelin-13 ((Pyr1)apelin-13) peptide, which was set to 100%.
The examples disclosed below were tested in the APJ in vitro assays described above and were found having human APJ cyclic AMP (hcAMP) activity. The EC50 value of each compound is presented at the end of the example description.
The biological activity of the exemplified compounds of this invention determined by the assay described above is shown at the end of each example.

[1] = HEK293 cells stably expressing human APJ receptor; inhibition of forskolin-mediated cAMP production; Table 1; read-out: hAPJ cAMP EC50 Potency range
[2] = hAPJ cAMP EC50 Potency range, HEK293 cells stably expressing human APJ receptor; inhibition of forskolin-mediated cAMP production; Table 1
[3] = read-out: hAPJ cAMP EC50 Potency range; HEK293 cells stably expressing human APJ receptor; inhibition of forskolin-mediated cAMP production; Table 1

Structure (SMILES) | pEC50 [1] | other results
CCCCc1nc(O)c(S(=O)(=O)c2ccc(-c3ccccc3C(N)=O)cc2)c(O)c1N1CCCc2ccccc21 [Example 057, 4′-((6-butyl-5-(3,4-dihydroquinolin-1(2H)-yl)-2,4-dihydroxypyridin-3-yl)sulfonyl)-[1,1′-biphenyl]-2-carboxamide] | 8.00 to 11.00 | 
CCCCc1nc(O)c(S(=O)(=O)c2ccc(-c3ccccc3C(=O)NC)cc2)c(O)c1N1CCCc2ccccc21 [Example 061, 4′-((6-butyl-5-(3,4-dihydroquinolin-1(2H)-yl)-2,4-dihydroxypyridin-3-yl)sulfonyl)-N-methyl-[1,1′-biphenyl]-2-carboxamide] | 8.00 to 11.00 | 
CCCCc1nc(O)c(S(=O)(=O)c2ccc(-c3ccccc3C(N)=O)cc2)c(O)c1N(C)c1ccccc1 [Example 065, 4′-((6-butyl-2,4-dihydroxy-5-(methyl(phenyl)amino)pyridin-3-yl)sulfonyl)-[1,1′-biphenyl]-2-carboxamide] | 8.00 to 11.00 | 
CCCCc1nc(O)c(C(=O)N2CC[C@H](c3ccccc3)C2)c(O)c1N(CC)c1ccccc1 [Example 066, (R)-(6-butyl-5-(ethyl(phenyl)amino)-2,4-dihydroxypyridin-3-yl)(3-phenylpyrrolidin-1-yl)methanone] |  | pEC50 [2]: 7.00 to 8.00
CCCCc1nc(O)c(C(=O)N2CCC(c3ccc(Cl)cn3)C2)c(O)c1N(CC)c1ccccc1 (stereo not drawn) [Example 067, (6-butyl-5-(ethyl(phenyl)amino)-2,4-dihydroxypyridin-3-yl)(3-(5-chloropyridin-2-yl)pyrrolidin-1-yl)methanone] |  | pEC50 [2]: 8.00 to 11.00
CCCCc1nc(O)c(C(=O)N2CC[C@@H](c3ccccc3)C2)c(O)c1N(CCC)c1ccccc1 [Example 068, (S)-(6-butyl-2,4-dihydroxy-5-(phenyl(propyl)amino)pyridin-3-yl)(3-phenylpyrrolidin-1-yl)methanone] | 7.00 to 8.00 | 
CCCCc1nc(O)c(C(=O)N2CC[C@H](c3ccccc3)C2)c(O)c1N(CCC)c1ccccc1 [Example 069, (R)-(6-butyl-2,4-dihydroxy-5-(phenyl(propyl)amino)pyridin-3-yl)(3-phenylpyrrolidin-1-yl)methanone] | 7.00 to 8.00 | 
CCCCc1nc(O)c(C(=O)N2CCC(c3ncc(Cl)cc3F)C2)c(O)c1N(CC)c1ccccc1 (stereo not drawn) [Example 070, (6-butyl-5-(ethyl(phenyl)amino)-2,4-dihydroxypyridin-3-yl)(3-(5-chloro-3-fluoropyridin-2-yl)pyrrolidin-1-yl)methanone] |  | pEC50 [2]: 8.00 to 11.00
CCCCc1nc(O)c(C(=O)N2CCC(c3ncc(F)cc3F)C2)c(O)c1N(CC)c1ccccc1 (stereo not drawn) [Example 071, (6-butyl-5-(ethyl(phenyl)amino)-2,4-dihydroxypyridin-3-yl)(3-(3,5-difluoropyridin-2-yl)pyrrolidin-1-yl)methanone] |  | pEC50 [2]: 8.00 to 11.00
CCCCc1nc(O)c(C(=O)N2CCC(c3ncc(Cl)cc3F)C2)c(O)c1N(CC)c1ccccc1 (stereo not drawn) [Example 072, (6-butyl-5-(ethyl(phenyl)amino)-2,4-dihydroxypyridin-3-yl)(3-(5-chloro-3-fluoropyridin-2-yl)pyrrolidin-1-yl)methanone] |  | pEC50 [3]: 8.00 to 11.00
CCCCc1nc(O)c(C(=O)N2CCC(c3ncc(F)cc3F)C2)c(O)c1N(CC)c1ccccc1 (stereo not drawn) [Example 073, (6-butyl-5-(ethyl(phenyl)amino)-2,4-dihydroxypyridin-3-yl)(3-(3,5-difluoropyridin-2-yl)pyrrolidin-1-yl)methanone] |  | pEC50 [3]: 8.00 to 11.00
CCCCc1nc(O)c(C(=O)N2CCN(Cc3cccc(Cl)c3Cl)CC2)c(O)c1N(CC)c1ccccc1 [Example 074, (6-butyl-5-(ethyl(phenyl)amino)-2,4-dihydroxypyridin-3-yl)(4-(2,3-dichlorobenzyl)piperazin-1-yl)methanone] |  | pEC50 [2]: 7.00 to 8.00
CCCCc1nc(O)c(C(=O)N2CCC(c3ccccc3F)C2)c(O)c1N(CC)c1ccccc1 (stereo not drawn) [Example 075, (6-butyl-5-(ethyl(phenyl)amino)-2,4-dihydroxypyridin-3-yl)(3-(2-fluorophenyl)pyrrolidin-1-yl)methanone] |  | pEC50 [2]: 8.00 to 11.00
CCCCc1nc(O)c(C(=O)N2CCC(c3ccc(Cl)cn3)C2)c(O)c1N(CC)c1ccccc1 (stereo not drawn) [Example 076, (6-butyl-5-(ethyl(phenyl)amino)-2,4-dihydroxypyridin-3-yl)(3-(5-chloropyridin-2-yl)pyrrolidin-1-yl)methanone] |  | pEC50 [2]: 7.00 to 8.00
CCCCc1nc(O)c(S(=O)(=O)c2ccc(Br)cc2)c(O)c1N(CC)c1ccccc1 [Example 077, 3-((4-bromophenyl)sulfonyl)-6-butyl-5-(ethyl(phenyl)amino)pyridine-2,4-diol] | 7.00 to 8.00 | 

More lines, main results first:

pEC50 [1] | Structure (SMILES) | other results
8.00 to 11.00 | CCN(c1ccccc1)c1c(-c2ccn(C)n2)nc(O)c(S(=O)(=O)c2ccc(-c3ccccc3C(=O)NC)cc2)c1O [Example 056, 4′-((5-(ethyl(phenyl)amino)-2,4-dihydroxy-6-(1-methyl-1H-pyrazol-3-yl)pyridin-3-yl)sulfonyl)-N-methyl-[1,1′-biphenyl]-2-carboxamide] | 
8.00 to 11.00 | CCN(c1ccccc1)c1c(-c2ccn(C)n2)nc(O)c(S(=O)(=O)c2ccc(-c3cccnc3C)cc2)c1O [Example 058, 5-(ethyl(phenyl)amino)-6-(1-methyl-1H-pyrazol-3-yl)-3-((4-(2-methylpyridin-3-yl)phenyl)sulfonyl)pyridine-2,4-diol] | 
8.00 to 11.00 | CCN(c1ccccc1)c1c(-c2ccn(C)n2)nc(O)c(S(=O)(=O)c2ccc(-c3ccc(F)nc3C)cc2)c1O [Example 059, 5-(ethyl(phenyl)amino)-3-((4-(6-fluoro-2-methylpyridin-3-yl)phenyl)sulfonyl)-6-(1-methyl-1H-pyrazol-3-yl)pyridine-2,4-diol] | 
8.00 to 11.00 | CCN(c1ccccc1)c1c(-c2ccn(C)n2)nc(O)c(S(=O)(=O)c2ccc(-c3ccccc3C(=O)N(C)C)cc2)c1O [Example 060, 4′-((5-(ethyl(phenyl)amino)-2,4-dihydroxy-6-(1-methyl-1H-pyrazol-3-yl)pyridin-3-yl)sulfonyl)-N,N-dimethyl-[1,1′-biphenyl]-2-carboxamide] | 
8.00 to 11.00 | CCN(c1ccccc1)c1c(CC2CC2)nc(O)c(S(=O)(=O)c2ccc(-c3ccccc3C(=O)N(C)C)cc2)c1O [Example 062, 4′-((6-(cyclopropylmethyl)-5-(ethyl(phenyl)amino)-2,4-dihydroxypyridin-3-yl)sulfonyl)-N,N-dimethyl-[1,1′-biphenyl]-2-carboxamide] | 
8.00 to 11.00 | CCN(c1ccccc1)c1c(-c2ccn(C)n2)nc(O)c(S(=O)(=O)c2ccc(-c3ccnc(F)c3C)cc2)c1O [Example 063, 5-(ethyl(phenyl)amino)-3-((4-(2-fluoro-3-methylpyridin-4-yl)phenyl)sulfonyl)-6-(1-methyl-1H-pyrazol-3-yl)pyridine-2,4-diol] | 
8.00 to 11.00 | CCN(c1ccccc1)c1c(-c2ccn(C)n2)nc(O)c(S(=O)(=O)c2ccc(-c3ccncc3C)cc2)c1O [Example 064, 5-(ethyl(phenyl)amino)-6-(1-methyl-1H-pyrazol-3-yl)-3-((4-(3-methylpyridin-4-yl)phenyl)sulfonyl)pyridine-2,4-diol] | 
8.00 to 11.00 | CCCCc1nc(O)c(S(=O)(=O)c2ccc(-c3ccncc3C)cc2)c(O)c1N(CC)c1ccccc1 [Example 078, 6-butyl-5-(ethyl(phenyl)amino)-3-((4-(3-methylpyridin-4-yl)phenyl)sulfonyl)pyridine-2,4-diol] | 
8.00 to 11.00 | CCCCc1nc(O)c(S(=O)(=O)c2ccc(-c3cccnc3C)cc2)c(O)c1N(CC)c1ccccc1 [Example 079, 6-butyl-5-(ethyl(phenyl)amino)-3-((4-(2-methylpyridin-3-yl)phenyl)sulfonyl)pyridine-2,4-diol] | 
8.00 to 11.00 | CCCCc1nc(O)c(S(=O)(=O)c2ccc(-c3ccnc(F)c3C)cc2)c(O)c1N(CC)c1ccccc1 [Example 080, 6-butyl-5-(ethyl(phenyl)amino)-3-((4-(2-fluoro-3-methylpyridin-4-yl)phenyl)sulfonyl)pyridine-2,4-diol] | 
8.00 to 11.00 | CCCCc1nc(O)c(S(=O)(=O)c2ccc(-c3ccnc(OC)c3)cc2)c(O)c1N(CC)c1ccccc1 [Example 081, 6-butyl-5-(ethyl(phenyl)amino)-3-((4-(2-methoxypyridin-4-yl)phenyl)sulfonyl)pyridine-2,4-diol] | 
8.00 to 11.00 | CCCCc1nc(O)c(S(=O)(=O)c2ccc(-n3cc(Cl)ccc3=O)cc2)c(O)c1N(CC)c1ccccc1 [Example 082, 1-(4-((6-butyl-5-(ethyl(phenyl)amino)-2,4-dihydroxypyridin-3-yl)sulfonyl)phenyl)-5-chloropyridin-2(1H)-one] | 
